Measured values taken from patent US20050282743A1, “Molecular interactions in cells” (Arbor Vita Corporation, priority 2001, published 2005).
Ends that are not written are not given here. Peptide text beside a SMILES is read from it. * marks the point of attachment. Biotin = O=C1N[C@H]2[C@H](CS[C@H]2CCCCC(=O)*)N1

Experiments:
Assay in all cases: G' assay (10 uM PL peptide), results of TABLE 7 and TABLE 12
Type in all cases: binding
[1] = target: T1, PDZ protein (GST-PDZ fusion) (Homo sapiens, UniProt Q12923)
T1 construct: made in house; host or cells: E. coli (DH5alpha, BL21 or JM109)
T1 sequence (Q12923 whole entry, the tested form may be a part): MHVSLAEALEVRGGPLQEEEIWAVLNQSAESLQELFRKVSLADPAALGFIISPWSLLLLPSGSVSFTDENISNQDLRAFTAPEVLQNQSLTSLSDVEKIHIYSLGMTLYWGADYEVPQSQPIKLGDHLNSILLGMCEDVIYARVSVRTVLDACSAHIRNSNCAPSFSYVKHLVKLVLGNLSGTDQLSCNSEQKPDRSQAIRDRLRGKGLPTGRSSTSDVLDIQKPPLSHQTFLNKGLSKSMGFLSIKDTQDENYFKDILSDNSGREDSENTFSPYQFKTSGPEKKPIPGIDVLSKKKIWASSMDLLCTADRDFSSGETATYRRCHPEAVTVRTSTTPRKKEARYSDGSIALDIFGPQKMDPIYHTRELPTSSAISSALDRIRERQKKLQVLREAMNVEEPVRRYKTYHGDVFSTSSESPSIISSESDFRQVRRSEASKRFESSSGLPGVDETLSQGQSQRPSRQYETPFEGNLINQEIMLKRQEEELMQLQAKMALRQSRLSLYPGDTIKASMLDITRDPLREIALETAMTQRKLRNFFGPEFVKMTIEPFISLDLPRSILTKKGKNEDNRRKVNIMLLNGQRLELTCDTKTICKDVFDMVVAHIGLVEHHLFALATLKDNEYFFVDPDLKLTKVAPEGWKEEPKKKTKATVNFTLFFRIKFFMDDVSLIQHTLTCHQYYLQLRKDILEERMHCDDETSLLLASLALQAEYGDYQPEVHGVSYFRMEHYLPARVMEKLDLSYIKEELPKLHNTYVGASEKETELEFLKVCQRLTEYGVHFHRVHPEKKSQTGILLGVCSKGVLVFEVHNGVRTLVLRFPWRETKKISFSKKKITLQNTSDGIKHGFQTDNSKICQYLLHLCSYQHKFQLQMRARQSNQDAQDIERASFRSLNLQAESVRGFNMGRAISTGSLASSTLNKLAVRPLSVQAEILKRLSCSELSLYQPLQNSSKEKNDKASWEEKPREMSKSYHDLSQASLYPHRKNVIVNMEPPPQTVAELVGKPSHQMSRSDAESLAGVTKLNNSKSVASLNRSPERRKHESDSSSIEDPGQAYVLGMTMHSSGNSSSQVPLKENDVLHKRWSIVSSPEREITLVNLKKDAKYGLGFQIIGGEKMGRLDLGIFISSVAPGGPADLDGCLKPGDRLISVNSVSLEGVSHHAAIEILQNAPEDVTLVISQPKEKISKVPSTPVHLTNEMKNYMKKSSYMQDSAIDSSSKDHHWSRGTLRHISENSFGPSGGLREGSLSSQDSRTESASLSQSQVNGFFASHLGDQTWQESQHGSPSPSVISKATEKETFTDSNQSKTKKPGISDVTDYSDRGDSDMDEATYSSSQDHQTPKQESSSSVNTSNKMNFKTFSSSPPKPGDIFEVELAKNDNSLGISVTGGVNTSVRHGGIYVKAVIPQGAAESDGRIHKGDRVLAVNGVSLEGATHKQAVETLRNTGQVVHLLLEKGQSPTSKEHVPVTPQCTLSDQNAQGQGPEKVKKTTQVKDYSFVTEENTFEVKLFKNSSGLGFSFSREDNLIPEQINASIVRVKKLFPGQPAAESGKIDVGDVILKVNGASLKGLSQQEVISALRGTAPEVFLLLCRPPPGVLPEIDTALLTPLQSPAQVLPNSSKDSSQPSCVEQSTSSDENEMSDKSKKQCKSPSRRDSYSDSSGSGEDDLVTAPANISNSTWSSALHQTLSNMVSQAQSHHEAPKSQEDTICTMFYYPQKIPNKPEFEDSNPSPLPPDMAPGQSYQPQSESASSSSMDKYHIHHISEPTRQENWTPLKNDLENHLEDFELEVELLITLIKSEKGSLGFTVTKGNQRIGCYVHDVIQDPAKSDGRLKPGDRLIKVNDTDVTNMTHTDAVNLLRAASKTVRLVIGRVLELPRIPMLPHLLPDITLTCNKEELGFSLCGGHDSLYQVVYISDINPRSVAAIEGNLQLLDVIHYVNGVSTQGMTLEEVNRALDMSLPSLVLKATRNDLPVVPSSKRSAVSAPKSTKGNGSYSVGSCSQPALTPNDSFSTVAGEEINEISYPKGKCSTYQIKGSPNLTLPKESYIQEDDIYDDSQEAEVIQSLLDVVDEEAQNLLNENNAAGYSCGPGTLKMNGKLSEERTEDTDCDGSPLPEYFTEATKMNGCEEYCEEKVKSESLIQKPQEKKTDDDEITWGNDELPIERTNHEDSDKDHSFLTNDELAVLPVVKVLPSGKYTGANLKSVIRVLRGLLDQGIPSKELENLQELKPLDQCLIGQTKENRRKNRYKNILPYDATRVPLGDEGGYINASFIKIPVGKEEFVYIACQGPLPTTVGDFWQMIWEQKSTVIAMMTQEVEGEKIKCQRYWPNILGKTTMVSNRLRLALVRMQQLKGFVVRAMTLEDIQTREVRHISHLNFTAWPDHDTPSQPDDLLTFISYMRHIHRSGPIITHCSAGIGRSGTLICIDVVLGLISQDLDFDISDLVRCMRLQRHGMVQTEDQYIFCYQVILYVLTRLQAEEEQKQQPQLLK
How it was run: (§1)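 Biotinylated PL peptides at 10 uM (vs 20 uM in G^0 assay) bound to GST-PDZ fusions; PDZ protein at 5 ug/ml unless another concentration listed. Bound peptide read as A450 nm, classified 0–5 (0 = A450 0; 5 = A450 >4 repeated).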

[2] = target: T2, PDZ protein (GST-PDZ fusion) (Homo sapiens, UniProt Q6P0Q8)
T2 construct: made in house; host or cells: E. coli (DH5alpha, BL21 or JM109)
How it was run: as §1

[3] = system: PDZ protein (GST-PDZ fusion)
How it was run: as §1

[4] = target: T3, PDZ protein (GST-PDZ fusion) (Homo sapiens, UniProt O75970)
T3 construct: made in house; host or cells: E. coli (DH5alpha, BL21 or JM109)
T3 sequence (O75970 whole entry, the tested form may be a part): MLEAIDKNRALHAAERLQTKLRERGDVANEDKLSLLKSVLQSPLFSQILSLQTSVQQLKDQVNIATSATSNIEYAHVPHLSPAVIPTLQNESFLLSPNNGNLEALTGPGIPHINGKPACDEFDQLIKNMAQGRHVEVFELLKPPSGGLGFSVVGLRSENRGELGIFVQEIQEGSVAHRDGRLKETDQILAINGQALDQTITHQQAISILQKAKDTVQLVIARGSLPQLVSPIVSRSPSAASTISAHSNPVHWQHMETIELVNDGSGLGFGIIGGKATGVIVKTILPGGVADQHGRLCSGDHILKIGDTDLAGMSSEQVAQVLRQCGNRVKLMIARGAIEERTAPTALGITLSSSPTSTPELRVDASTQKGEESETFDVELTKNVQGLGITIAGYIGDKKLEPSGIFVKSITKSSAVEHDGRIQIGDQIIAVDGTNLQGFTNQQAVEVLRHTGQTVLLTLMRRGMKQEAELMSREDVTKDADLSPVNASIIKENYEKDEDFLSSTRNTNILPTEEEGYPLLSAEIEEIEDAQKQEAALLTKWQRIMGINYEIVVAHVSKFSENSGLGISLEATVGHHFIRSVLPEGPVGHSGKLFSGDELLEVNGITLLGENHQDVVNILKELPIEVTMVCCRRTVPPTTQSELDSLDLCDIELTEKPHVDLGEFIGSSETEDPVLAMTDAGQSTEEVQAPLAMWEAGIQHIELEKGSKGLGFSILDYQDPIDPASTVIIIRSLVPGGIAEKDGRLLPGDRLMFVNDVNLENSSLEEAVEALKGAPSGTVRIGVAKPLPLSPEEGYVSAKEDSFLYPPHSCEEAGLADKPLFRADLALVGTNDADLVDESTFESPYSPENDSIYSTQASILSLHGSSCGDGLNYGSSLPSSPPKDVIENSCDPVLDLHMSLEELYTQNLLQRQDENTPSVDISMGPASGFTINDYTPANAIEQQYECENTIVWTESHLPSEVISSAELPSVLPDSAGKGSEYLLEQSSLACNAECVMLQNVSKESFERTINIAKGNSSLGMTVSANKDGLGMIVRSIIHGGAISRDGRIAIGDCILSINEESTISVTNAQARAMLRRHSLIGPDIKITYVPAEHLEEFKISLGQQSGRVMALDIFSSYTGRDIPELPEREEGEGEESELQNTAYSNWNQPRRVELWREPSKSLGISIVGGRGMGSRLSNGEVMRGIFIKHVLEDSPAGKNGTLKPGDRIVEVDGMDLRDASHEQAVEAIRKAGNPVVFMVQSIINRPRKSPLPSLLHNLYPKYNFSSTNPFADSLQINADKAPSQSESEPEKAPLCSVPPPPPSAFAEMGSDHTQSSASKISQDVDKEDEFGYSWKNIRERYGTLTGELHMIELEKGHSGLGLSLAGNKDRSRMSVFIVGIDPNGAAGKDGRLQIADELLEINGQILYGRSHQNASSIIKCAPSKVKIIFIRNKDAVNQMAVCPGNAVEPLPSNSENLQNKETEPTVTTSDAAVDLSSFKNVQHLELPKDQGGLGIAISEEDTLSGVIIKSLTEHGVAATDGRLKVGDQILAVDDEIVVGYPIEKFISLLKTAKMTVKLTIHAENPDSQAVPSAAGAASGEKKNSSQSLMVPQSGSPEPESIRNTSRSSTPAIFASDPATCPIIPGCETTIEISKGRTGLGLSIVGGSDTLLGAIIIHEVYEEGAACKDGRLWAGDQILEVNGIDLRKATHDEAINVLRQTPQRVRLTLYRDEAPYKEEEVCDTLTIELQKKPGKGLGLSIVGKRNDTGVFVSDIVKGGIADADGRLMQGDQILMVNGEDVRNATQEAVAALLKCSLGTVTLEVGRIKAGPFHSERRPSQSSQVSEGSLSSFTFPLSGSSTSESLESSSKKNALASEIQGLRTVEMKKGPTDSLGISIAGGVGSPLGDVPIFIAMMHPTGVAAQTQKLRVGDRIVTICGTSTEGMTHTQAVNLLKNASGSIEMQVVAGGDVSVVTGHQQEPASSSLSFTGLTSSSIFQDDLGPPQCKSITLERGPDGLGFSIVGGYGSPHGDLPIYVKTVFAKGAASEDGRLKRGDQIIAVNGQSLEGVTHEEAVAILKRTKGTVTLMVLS
How it was run: as §1

[5] = target: T4, PDZ protein (GST-PDZ fusion) (Homo sapiens, UniProt Q96JH8); details: PDZ FLJ 10324, PDZ Domain 1
T4 construct: made in house; host or cells: E. coli (DH5alpha, BL21 or JM109)
T4 sequence (Q96JH8 1-1075): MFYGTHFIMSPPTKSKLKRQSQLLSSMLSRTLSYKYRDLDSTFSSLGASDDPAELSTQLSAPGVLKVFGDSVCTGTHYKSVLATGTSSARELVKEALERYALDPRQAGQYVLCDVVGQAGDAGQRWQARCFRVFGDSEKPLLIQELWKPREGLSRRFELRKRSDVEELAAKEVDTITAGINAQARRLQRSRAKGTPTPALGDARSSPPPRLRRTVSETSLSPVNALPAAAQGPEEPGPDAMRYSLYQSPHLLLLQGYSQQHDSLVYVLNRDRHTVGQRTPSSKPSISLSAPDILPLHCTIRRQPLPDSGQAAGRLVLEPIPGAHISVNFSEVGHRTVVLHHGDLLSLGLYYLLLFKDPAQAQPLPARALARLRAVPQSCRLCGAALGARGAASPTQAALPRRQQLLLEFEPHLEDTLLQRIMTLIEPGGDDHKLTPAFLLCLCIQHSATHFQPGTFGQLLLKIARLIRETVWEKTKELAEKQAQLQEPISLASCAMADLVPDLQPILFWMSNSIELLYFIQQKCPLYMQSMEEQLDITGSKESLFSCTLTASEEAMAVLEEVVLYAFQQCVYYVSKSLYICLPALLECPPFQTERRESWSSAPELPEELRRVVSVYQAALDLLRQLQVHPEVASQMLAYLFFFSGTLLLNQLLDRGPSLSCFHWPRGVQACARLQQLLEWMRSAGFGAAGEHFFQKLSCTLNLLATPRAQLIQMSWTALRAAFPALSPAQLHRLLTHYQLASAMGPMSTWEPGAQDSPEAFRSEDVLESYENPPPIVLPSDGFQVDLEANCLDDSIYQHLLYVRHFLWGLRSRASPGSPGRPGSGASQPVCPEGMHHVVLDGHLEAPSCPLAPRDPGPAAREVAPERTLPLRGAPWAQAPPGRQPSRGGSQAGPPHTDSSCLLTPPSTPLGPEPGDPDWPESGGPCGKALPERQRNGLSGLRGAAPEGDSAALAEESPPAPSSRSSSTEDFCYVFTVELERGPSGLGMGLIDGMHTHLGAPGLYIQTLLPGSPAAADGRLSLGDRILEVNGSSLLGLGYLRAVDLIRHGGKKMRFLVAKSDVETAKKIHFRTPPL
How it was run: as §1

[6] = PDZ KIAA807, PDZ Domain not given
[7] = PDZ HEMBA 1003117, PDZ Domain 1

Classification ([1]; PDZ PTPL-1, PDZ Domain 4) | Classification ([2]; PDZ KIAA0807(S), PDZ Domain 1) | Classification ([4]; PDZ MUPP-1, PDZ Domain 2) | Classification ([4]; PDZ MUPP-1, PDZ Domain 3) | Classification ([4]; PDZ MUPP-1, PDZ Domain 7) | Classification ([4]; PDZ MUPP-1, PDZ Domain 9) | Classification ([4]; PDZ MUPP-1, PDZ Domain 10) | Classification ([4]; PDZ MUPP-1, PDZ Domain 11) | Classification [5] | Molecule | Classification [2, 6] | Classification [3, 7] | Classification ([1]; PDZ PTPL-1, PDZ Domain 2) | Classification ([4]; PDZ MUPP-1, PDZ Domain 13) | further results
5 (A450 nm of 4 more than 2× repeated) | 5 (A450 nm of 4 more than 2× repeated) | 1 (A450 nm 0-1) | 3 (A450 nm 2-3) | 3 (A450 nm 2-3) | 3 (A450 nm 2-3) | 1 (A450 nm 0-1) | 5 (A450 nm of 4 more than 2× repeated) | 5 (A450 nm of 4 more than 2× repeated) | CC[C@H](C)[C@H](NC(=O)[C@H](Cc1ccc(O)cc1)NC(=O)[C@@H](NC(=O)[C@@H]1CCCN1C(=O)[C@H](CCC(N)=O)NC(=O)[C@H](CCC(=O)O)NC(=O)[C@H](CCC(N)=O)NC(=O)[C@H](C)NC(=O)[C@@H](NC(=O)[C@H](CC(C)C)NC(=O)[C@H](CC(C)C)NC(=O)[C@H](CCCNC(=N)N)NC(=O)[C@H](Cc1ccc(O)cc1)NC(=O)[C@H](CCSC)NC(=O)[C@H](C)NC(=O)[C@H](C)NC(=O)[C@@H]1CCCN1C(=O)[C@H](CCSC)NC(=O)[C@@H](NC(=O)[C@H](CCCCN)NC(=O)CCCC[C@@H]1SC[C@@H]2NC(=O)N[C@@H]21)[C@@H](C)O)[C@@H](C)O)C(C)C)C(=O)O [MINT-1] (Biotin-KTMPAAMYRLLTAQEQPVYI-OH; C-terminus assumed) | 4 (A450 nm 3-4) | 3 (A450 nm 2-3) |  |  | Classification ([4]; PDZ MUPP-1, PDZ Domain 1): 1 (A450 nm 0-1); Classification ([4]; PDZ MUPP-1, PDZ Domain 5): 2 (A450 nm 1-2)
4 (A450 nm 3-4) | 4 (A450 nm 3-4) | 1 (A450 nm 0-1) | 1 (A450 nm 0-1) | 1 (A450 nm 0-1) | 1 (A450 nm 0-1) |  | 5 (A450 nm of 4 more than 2× repeated) | 4 (A450 nm 3-4) | KTMPAAMFRLLTGQETPLYI (Biotin-KTMPAAMFRLLTGQETPLYI) [MINT-2] | 3 (A450 nm 2-3) | 3 (A450 nm 2-3) |  |  | 

Further lines, the molecule ahead of its results:

Molecule | Classification ([1]; PDZ PTPL-1, PDZ Domain 4) | Classification ([2]; PDZ KIAA0807(S), PDZ Domain 1) | Classification ([4]; PDZ MUPP-1, PDZ Domain 2) | Classification ([4]; PDZ MUPP-1, PDZ Domain 3) | Classification ([4]; PDZ MUPP-1, PDZ Domain 7) | Classification ([4]; PDZ MUPP-1, PDZ Domain 9) | Classification ([4]; PDZ MUPP-1, PDZ Domain 10) | Classification ([4]; PDZ MUPP-1, PDZ Domain 11) | Classification [5] | Classification [2, 6] | Classification [3, 7] | Classification ([1]; PDZ PTPL-1, PDZ Domain 2) | Classification ([4]; PDZ MUPP-1, PDZ Domain 13) | further results
CC[C@H](C)[C@H](NC(=O)[C@H](CCC(N)=O)NC(=O)[C@@H](NC(=O)[C@H](Cc1c[nH]cn1)NC(=O)[C@H](CCC(N)=O)NC(=O)[C@H](CC(=O)O)NC(=O)[C@H](CCC(=O)O)NC(=O)[C@H](CC(=O)O)NC(=O)[C@H](Cc1ccccc1)NC(=O)[C@@H]1CCCN1C(=O)[C@H](CCC(=O)O)NC(=O)[C@H](CC(N)=O)NC(=O)[C@H](CCC(=O)O)NC(=O)[C@@H]1CCCN1C(=O)[C@H](CC(=O)O)NC(=O)[C@H](CO)NC(=O)[C@H](CC(=O)O)NC(=O)CCCC[C@@H]1SC[C@@H]2NC(=O)N[C@@H]21)[C@@H](C)O)C(=O)N[C@H](C(=O)N[C@@H](CCCCN)C(=O)N[C@H](C(=O)O)C(C)C)[C@@H](C)O [PTEN] | 1 (A450 nm 0-1) | 5 (A450 nm of 4 more than 2× repeated) |  |  |  |  |  |  | 1 (A450 nm 0-1) | 5 (A450 nm of 4 more than 2× repeated) | 1 (A450 nm 0-1) | 4 (A450 nm 3-4) | 5 (A450 nm of 4 more than 2× repeated) | Classification ([3]; PDZ BAI-1, PDZ Domain 3): 2 (A450 nm 1-2); Classification ([3]; PDZ FLJ 00011, PDZ Domain 1): 3 (A450 nm 2-3); Classification ([3]; PDZ SHANK, PDZ Domain 1): 3 (A450 nm 2-3)
CC[C@H](C)[C@H](NC(=O)[C@H](Cc1ccc(O)cc1)NC(=O)[C@H](CC(C)C)NC(=O)[C@H](CCC(N)=O)NC(=O)[C@H](Cc1c[nH]cn1)NC(=O)[C@H](CO)NC(=O)[C@H](C)NC(=O)[C@H](CC(C)C)NC(=O)[C@@H](NC(=O)[C@H](CC(=O)O)NC(=O)[C@H](CCSC)NC(=O)[C@H](Cc1ccccc1)NC(=O)[C@@H]1CCCN1C(=O)[C@H](CCCNC(=N)N)NC(=O)[C@@H](NC(=O)[C@H](CC(C)C)NC(=O)[C@H](CC(N)=O)NC(=O)[C@H](CC(=O)O)NC(=O)[C@@H](NC(=O)[C@H](CO)NC(=O)CCCC[C@@H]1SC[C@@H]2NC(=O)N[C@@H]21)[C@@H](C)O)C(C)C)[C@@H](C)O)C(=O)O [presenilin-2] (Biotin-STDNLVRPFMDTLASHQLYI-OH; C-terminus assumed) | 2 (A450 nm 1-2) | 1 (A450 nm 0-1) |  | 3 (A450 nm 2-3) | 2 (A450 nm 1-2) | 3 (A450 nm 2-3) |  |  | 5 (A450 nm of 4 more than 2× repeated) |  | 4 (A450 nm 3-4) |  |  | 
A2AA_HUMAN (modified) (Biotin-HDFRRAFKKILARGDRKRIV; not fully specified) |  | 1 (A450 nm 0-1) |  |  |  |  |  |  | 1 (A450 nm 0-1) |  | 1 (A450 nm 0-1) | 2 (A450 nm 1-2) | 1 (A450 nm 0-1) | Classification ([3]; PDZ BAI-1, PDZ Domain 6): 3 (A450 nm 2-3); Classification ([3]; PDZ Unnamed Protein, PDZ Domain 2): 1 (A450 nm 0-1); Classification ([4]; PDZ MUPP-1, PDZ Domain 6): 2 (A450 nm 1-2); Classification ([4]; PDZ MUPP-1, PDZ Domain 8): 1 (A450 nm 0-1)
ELLQFCRTPNPALKNGQYWV (Biotin-ELLQFCRTPNPALKNGQYWV) | 5 (A450 nm of 4 more than 2× repeated) | 1 (A450 nm 0-1) | 5 (A450 nm of 4 more than 2× repeated) |  |  |  | 4 (A450 nm 3-4) | 5 (A450 nm of 4 more than 2× repeated) | 5 (A450 nm of 4 more than 2× repeated) |  | 5 (A450 nm of 4 more than 2× repeated) |  |  | Classification ([2]; PDZ KIAA807): 1 (A450 nm 0-1); Classification ([3]; PDZ BAI-1, PDZ Domain 2): 2 (A450 nm 1-2); Classification ([3]; PDZ BAI-1, PDZ Domain 6): 4 (A450 nm 3-4); Classification ([4]; PDZ MUPP-1, PDZ Domain 1): 2 (A450 nm 1-2); Classification ([4]; PDZ MUPP-1, PDZ Domain 5): 5 (A450 nm of 4 more than 2× repeated); Classification ([4]; PDZ MUPP-1, PDZ Domain 8): 2 (A450 nm 1-2); Classification ([4]; PDZ MUPP-1, PDZ Domain 12): 1 (A450 nm 0-1)
ISGTPTSTMVHGMTSSSSVV (Biotin-ISGTPTSTMVHGMTSSSSVV) [Clasp-2] |  |  |  |  |  |  | 1 (A450 nm 0-1) |  | 1 (A450 nm 0-1) | 1 (A450 nm 0-1) |  | 1 (A450 nm 0-1) | 1 (A450 nm 0-1) | Classification ([3]; PDZ BAI-1, PDZ Domain 2): 1 (A450 nm 0-1); Classification ([3]; PDZ BAI-1, PDZ Domain 5): 1 (A450 nm 0-1)
